Reference: patent publication US20230090111A1, “CXCL8 INHIBITOR AND PHARMACEUTICAL COMPOSITION THEREOF FOR USE IN THE TREATMENT OF CANCER-RELATED FATIGUE” (Dompe' farmaceutici SpA, priority 2020, published 2023)
Where “and” joins values, the source holds several entries; their conditions need not be identical. Identical values can stand only once. Entries after “also recorded” stand apart in the source; their conditions may differ.

Experiments:
[1] = test system: dogs with osteosarcoma metastatic to the lungs; assay: Prospective pilot study: QoL of dogs given doxorubicin, oclacitinib and ladarixin; assay type: in vivo; parameters: mqol gooddavs / mqol_sleeps / mqol_depressed / mqol_eats / mqol_drinks / mqol_moves / mqol_lays / mqol_active / mqol_play / mqol_presence / mqol_enjoyslife: scale not given here; conditions: for mqol gooddavs / mqol_active / mqol_depressed / mqol_drinks / mqol_eats / mqol_enjoyslife / mqol_lays / mqol_moves / mqol_play / mqol_presence / mqol_sleeps: with doxorubicin+oclacitinib
Method: A prospective pilot study was conducted to evaluate whether the addition of ladarixin to doxorubicin and oclacitinib mitigates the adverse event profile associated with doxorubicin which includes fatigue, lethargy, anorexia and a general decrease in quality of life (QoL).
A cohort of 5 dogs with osteosarcoma metastatic to the lungs was studied.
In this study, dogs received doxorubicin at […] IV, oclacitinib at 0.4-0.6 mg/kg orally twice per day (label dose) and ladarixin at 15 mg/kg twice per day.
A well validated QoL for dogs with cancer was used (Giuffrida et al., J Am Vet Med Assoc, 252(9): 1073-1083) to assess changes in performance status and quality of life during the course of the study. The QoL values were reported as a numerical value and tracked over each study visit. All owners were required to maintain a diary to chart the administration of medications, note any changes in behaviour, document appetite and energy levels, and identify any other changes in constitutional changes. Owners also recorded a daily performance status (scale from 0 to 5).

[2] = test system: cancer-related fatigue (CRF); conditions: A. Spathis et al., 2014; cited from earlier work
[3] = oclacitinib alone; cited from earlier work
[4] = test system: patients with metastatic triple negative breast cancer (TNBC); assay: Randomized, double-blind, placebo-controlled phase 2 study (FRIDA): fatigue as treatment emergent adverse event (NCI-CTCAE 4.03); assay type: in vivo, human
Method: The study was conducted with 56 sites actively screening patients in the United States of America, Italy, France, Belgium, Spain, Czech Republic and Poland.
Two sub-groups of patients were studied: newly diagnosed metastatic patients and patients that had relapsed following a prior (neo)adjuvant chemotherapy regimen. Amongst other inclusion criteria, to be able to participate in the study, subjects were to have a Zubrod/ECOG Performance Status of 0 or 1 (0=Fully active; no performance restrictions 1=Strenuous physical activity restricted; fully ambulatory and able to carry out light work).
There was no limit to study treatment duration and patients remained in the study until disease progression, withdrawal of consent or unacceptable toxicity, whichever occurred first.
Investigators reported any adverse events experienced by study patients according to the NCI-CTCAE version 4.03. Toxicity was defined according to the grading scale for each parameter. According to this scale, the presence and intensity of fatigue is defined as follows: • Grade 1: Fatigue relieved by rest • Grade 2: Fatigue not relieved by rest, limiting instrumental ADL • Grade 3: Fatigue not relieved by rest, limiting self care ADL • where instrumental ADL refers to preparing meals, shopping for groceries or clothes, using the telephone, managing money, and the like and self care ADL refer to bathing, dressing and undressing, feeding self, using the toilet, taking medications, but not bedridden.
The distributions of fatigue as a treatment emergent adverse event (TEAE) irrespective of relationship with study treatment were compared among treatment groups using the Chi-squared test (Table 1).

[5] = D0, one value per dog (Record ID 1-5)
[6] = D7, one value per dog (Record ID 1-5)
[7] = D14, one value per dog (Record ID 1-5)
[8] = D21, one value per dog (Record ID 3-5)
[9] = judged by investigators under double-blind conditions, Chi-squared P 0.020
[10] = paclitaxel plus reparixin (Group 1) or placebo (Group 2), Chi-squared P 0.003

SMILES: C[C@@H](C(=O)NS(C)(=O)=O)c1ccc(OS(=O)(=O)C(F)(F)F)cc1 [ladarixin]
- total QoL score ([1]; 5 dogs, ladarixin with doxorubicin and oclacitinib): over 100
- mqol gooddavs [1, 5]: 5 (4×) and 4
- mqol_active [1, 5]: 5 (3×) and 2 and 4
- mqol_depressed [1, 5]: 5 (3×) and 4 (2×)
- mqol_drinks [1, 5]: 5 (4×) and 4
- mqol_eats [1, 5]: 5 (4×) and 4
- mqol_enjoyslife [1, 5]: 5 (4×) and 4
- mqol_lays [1, 5]: 5 (4×) and 2
- mqol_moves [1, 5]: 5 (4×) and 2
- mqol_play [1, 5]: 5 (4×) and 4
- mqol_presence [1, 5]: 5 (4×) and 4
- mqol_sleeps [1, 5]: 4 and 3 and 5 (3×)
- mqol gooddavs [1, 6]: 4 and 5 (4×)
- mqol_active [1, 6]: 5
- mqol_depressed [1, 6]: 4 and 5 (4×)
- mqol_drinks [1, 6]: 5
- mqol_eats [1, 6]: 5 (4×) and 3
- mqol_enjoyslife [1, 6]: 5
- mqol_lays [1, 6]: 4 and 5 (4×)
- mqol_moves [1, 6]: 4 and 5 (4×)
- mqol_play [1, 6]: 5 (4×) and 4
- mqol_presence [1, 6]: 5
- mqol_sleeps [1, 6]: 4 (2×) and 2 and 1 and 5
- mqol gooddavs [1, 7]: 5
- mqol_active [1, 7]: 5 (3×) and 4 and 3
- mqol_depressed [1, 7]: 5 (4×) and 4
- mqol_drinks [1, 7]: 5
- mqol_eats [1, 7]: 5
- mqol_enjoyslife [1, 7]: 5
- mqol_lays [1, 7]: 5 (4×) and 4
- mqol_moves [1, 7]: 5 (2×) and 4 (3×)
- mqol_play [1, 7]: 5
- mqol_presence [1, 7]: 5 (4×) and 4
- mqol_sleeps [1, 7]: 5 (2×) and 4 and 3 (2×)
- mqol gooddavs [1, 8]: 5 (2×) and 4
- mqol_active [1, 8]: 5 (2×) and 2
- mqol_depressed [1, 8]: 5 (2×) and 4
- mqol_drinks [1, 8]: 5 (2×) and 4
- mqol_eats [1, 8]: 5 (2×) and 4
- mqol_enjoyslife [1, 8]: 5 (2×) and 4
- mqol_lays [1, 8]: 5 (2×) and 2
- mqol_moves [1, 8]: 4 and 3 and 5
- mqol_play [1, 8]: 5 (2×) and 4
- mqol_presence [1, 8]: 5 (2×) and 4
- mqol_sleeps [1, 8]: 5 (2×) and 3
- Effect on severity of fatigue associated with doxorubicin treatment (in words) ([1]; ladarixin added to doxorubicin and oclacitinib): reduced the severity of the known fatigue induced by the treatment with doxorubicin; also recorded: reduced the severity of the known fatigue associated to the treatment

SMILES: NC(=O)C[S+]([O-])C(c1ccccc1)c1ccccc1 (stereo not drawn) [modafimil]
- Benefit over placebo in CRF (in words) [2]: no benefit over placebo

SMILES: CNS(=O)(=O)C[C@H]1CC[C@H](N(C)c2ncnc3[nH]ccc23)CC1 [oclacitinib]
- Ability to reduce severity of fatigue associated with chemotherapy (in words) [3]: not able to reduce the severity of fatigue associated with chemotherapy

SMILES: CC(=O)O[C@H]1C(=O)[C@@]2(C)[C@H]([C@H](OC(=O)c3ccccc3)[C@]3(O)C[C@H](OC(=O)[C@H](O)[C@@H](NC(=O)c4ccccc4)c4ccccc4)C(C)=C1C3(C)C)[C@]1(OC(C)=O)CO[C@@H]1C[C@@H]2O [paclitaxel]
- Subjects with severe (Grade 3) treatment-related fatigue, number ([4]; in vivo): two
- Subjects with severe (Grade 3) treatment-related fatigue, percent ([4]; in vivo): 3.3%
- Fatigue as TEAE at least possibly related to study treatment: No, number of subjects [4, 9]: 43
- Fatigue as TEAE at least possibly related to study treatment: No, percent of subjects [4, 9]: 71.7%
- Fatigue as TEAE at least possibly related to study treatment: Yes, number of subjects [4, 9]: 17 subjects
- Fatigue as TEAE at least possibly related to study treatment: Yes, percent of subjects [4, 9]: 28.3%
- Fatigue as TEAE irrespective of relationship with study treatment: Yes, number of subjects ([4]; paclitaxel 80 mg/m2 i.v. plus reparixin 1200 mg t.i.d. (Group 1) or placebo (Group 2), Chi-squared P 0.003): 26 subjects
- Fatigue as TEAE irrespective of relationship with study treatment: No, number of subjects [4, 10]: 34
- Fatigue as TEAE irrespective of relationship with study treatment: No, percent of subjects [4, 10]: 56.7%
- Fatigue as TEAE irrespective of relationship with study treatment: Yes, percent of subjects [4, 10]: 43.3%

SMILES: CC(C)Cc1ccc([C@@H](C)C(=O)NS(C)(=O)=O)cc1 [reparixin, R-(−)-2-(4-isobutylphenyl)propionyl methansulfonamide]
- Severity of fatigue in patients experiencing fatigue (NCI-Common Toxicity Criteria Grade) ([4]; all patients experiencing fatigue, mild and moderate): 1-2 Grade
- Effect on incidence and severity of fatigue (in words) ([4]; paclitaxel plus reparixin compared with paclitaxel and placebo): beneficial effect on incidence and severity of cancer-related fatigue; also recorded: significantly lower incidence and severity of treatment-related fatigue
